Reference: US8748368B2, “Methods for preserving organs and tissues” (DYAX Corp., priority 2002, dated 2014)
Positions of bridges follow the written chain, without caps; N, C: chain ends. No end group written: not given here.

Key:
Experiment in all cases: Affinity (Ki,app) for protease
Assay type in all cases: biochemical
human plasmin = target: T1, human plasmin (Homo sapiens, UniProt P00747)
T1 construct: human plasmin

[1] = target: T2, porcine pancreatic kallikrein (Sus scrofa, UniProt P00752)
T2 construct: from tissue; host or cells: pancreas (from the name only)
T2 sequence (P00752 8-246): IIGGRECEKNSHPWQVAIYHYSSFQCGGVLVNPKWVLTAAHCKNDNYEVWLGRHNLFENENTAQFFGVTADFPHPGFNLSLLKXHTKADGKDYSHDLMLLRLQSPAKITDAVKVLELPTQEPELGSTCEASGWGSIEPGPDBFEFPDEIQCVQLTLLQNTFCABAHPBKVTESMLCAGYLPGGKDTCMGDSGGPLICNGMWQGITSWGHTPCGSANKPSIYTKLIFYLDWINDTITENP

human urine kallikrein = target: T3, human urine kallikrein (Homo sapiens, UniProt P06870)
T3 construct: from tissue; host or cells: urine (from the name only)
T3 sequence (P06870 25-262): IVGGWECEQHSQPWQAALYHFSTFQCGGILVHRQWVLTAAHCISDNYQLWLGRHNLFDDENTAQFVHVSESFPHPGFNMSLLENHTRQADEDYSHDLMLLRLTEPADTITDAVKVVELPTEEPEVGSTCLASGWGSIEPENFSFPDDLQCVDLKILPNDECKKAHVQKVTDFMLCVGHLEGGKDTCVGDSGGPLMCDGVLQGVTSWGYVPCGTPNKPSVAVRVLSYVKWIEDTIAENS

human C1r, activated = target: T4, human C1r, activated (Homo sapiens, UniProt P00736)
T4 sequence (P00736 18-463 limits assumed): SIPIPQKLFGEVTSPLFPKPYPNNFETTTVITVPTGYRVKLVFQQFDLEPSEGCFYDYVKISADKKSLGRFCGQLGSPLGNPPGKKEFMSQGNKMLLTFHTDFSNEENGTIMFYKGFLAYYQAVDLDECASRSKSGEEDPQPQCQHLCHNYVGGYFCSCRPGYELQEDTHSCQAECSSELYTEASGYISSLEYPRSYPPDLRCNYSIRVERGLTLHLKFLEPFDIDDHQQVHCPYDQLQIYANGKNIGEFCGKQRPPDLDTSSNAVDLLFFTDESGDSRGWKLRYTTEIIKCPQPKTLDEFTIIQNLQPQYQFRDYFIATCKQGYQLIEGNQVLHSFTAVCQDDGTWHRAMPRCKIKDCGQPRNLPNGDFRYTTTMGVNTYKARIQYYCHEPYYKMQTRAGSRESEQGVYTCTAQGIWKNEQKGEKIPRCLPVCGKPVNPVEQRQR
T4 sequence (P00736 464-705 limits assumed): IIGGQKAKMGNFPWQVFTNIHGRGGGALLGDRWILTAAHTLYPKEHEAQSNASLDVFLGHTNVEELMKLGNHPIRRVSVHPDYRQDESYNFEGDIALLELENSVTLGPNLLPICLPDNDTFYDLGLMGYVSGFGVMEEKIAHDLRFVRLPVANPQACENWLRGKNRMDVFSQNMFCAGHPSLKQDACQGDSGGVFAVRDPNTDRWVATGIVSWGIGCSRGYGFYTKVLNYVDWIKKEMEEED

human plasma factor XIa = target: T5, human plasma factor XIa (Homo sapiens, UniProt P03951)
T5 construct: human plasma factor XIa; from tissue; host or cells: plasma (from the name only)
T5 sequence (P03951 19-387 limits assumed): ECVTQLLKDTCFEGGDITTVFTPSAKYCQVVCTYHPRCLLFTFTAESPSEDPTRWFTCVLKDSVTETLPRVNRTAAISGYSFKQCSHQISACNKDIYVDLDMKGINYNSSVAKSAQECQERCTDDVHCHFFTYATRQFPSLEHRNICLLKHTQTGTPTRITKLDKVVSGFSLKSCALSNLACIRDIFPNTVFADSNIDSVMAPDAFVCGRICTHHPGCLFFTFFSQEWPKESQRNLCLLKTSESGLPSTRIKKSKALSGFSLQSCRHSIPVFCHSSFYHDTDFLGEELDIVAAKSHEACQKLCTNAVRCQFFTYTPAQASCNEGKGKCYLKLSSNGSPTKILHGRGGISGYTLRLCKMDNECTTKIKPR
T5 sequence (P03951 388-625 limits assumed): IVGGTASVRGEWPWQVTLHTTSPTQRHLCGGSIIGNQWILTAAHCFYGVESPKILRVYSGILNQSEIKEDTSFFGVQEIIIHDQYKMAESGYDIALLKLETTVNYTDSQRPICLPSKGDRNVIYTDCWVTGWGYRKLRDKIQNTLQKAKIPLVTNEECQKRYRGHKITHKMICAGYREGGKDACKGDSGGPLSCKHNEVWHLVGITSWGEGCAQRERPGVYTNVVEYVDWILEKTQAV

human plasma thrombin = target: T6, human plasma thrombin (Homo sapiens, UniProt P00734)
T6 construct: human plasma thrombin; from tissue; host or cells: plasma (from the name only)

[2] = target: T7, human neutrophil elastase (Homo sapiens, UniProt P08246)
T7 sequence (P08246 30-267): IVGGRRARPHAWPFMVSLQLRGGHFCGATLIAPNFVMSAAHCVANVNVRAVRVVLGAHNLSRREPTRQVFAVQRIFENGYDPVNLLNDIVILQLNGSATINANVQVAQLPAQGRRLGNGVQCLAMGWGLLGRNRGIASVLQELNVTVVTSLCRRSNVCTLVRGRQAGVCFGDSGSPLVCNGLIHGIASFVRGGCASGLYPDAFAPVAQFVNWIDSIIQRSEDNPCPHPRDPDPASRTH

human C1s, activated = target: T8, human C1s, activated (Homo sapiens, UniProt P09871)
T8 sequence (P09871 16-437 limits assumed): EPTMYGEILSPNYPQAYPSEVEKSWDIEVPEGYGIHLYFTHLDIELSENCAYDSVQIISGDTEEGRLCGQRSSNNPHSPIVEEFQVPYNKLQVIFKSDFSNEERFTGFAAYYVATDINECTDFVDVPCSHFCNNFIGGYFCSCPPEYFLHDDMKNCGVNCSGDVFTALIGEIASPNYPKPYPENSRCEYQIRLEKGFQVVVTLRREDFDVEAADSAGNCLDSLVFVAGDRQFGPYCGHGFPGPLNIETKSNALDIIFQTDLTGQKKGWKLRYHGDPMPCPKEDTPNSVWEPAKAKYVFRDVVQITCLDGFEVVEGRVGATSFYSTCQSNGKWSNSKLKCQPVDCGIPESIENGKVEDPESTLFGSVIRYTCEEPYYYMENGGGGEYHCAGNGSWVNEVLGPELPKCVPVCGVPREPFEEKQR
T8 sequence (P09871 438-688 limits assumed): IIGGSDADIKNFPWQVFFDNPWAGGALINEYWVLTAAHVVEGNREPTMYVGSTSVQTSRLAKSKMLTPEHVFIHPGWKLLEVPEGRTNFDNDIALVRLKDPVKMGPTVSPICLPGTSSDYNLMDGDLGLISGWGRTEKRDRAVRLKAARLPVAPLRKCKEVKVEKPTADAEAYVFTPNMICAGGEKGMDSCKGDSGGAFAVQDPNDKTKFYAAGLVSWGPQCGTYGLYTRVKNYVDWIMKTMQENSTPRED

human plasma factor XIIa = target: human plasma factor XIIa
Sequence of human plasma factor XIIa (P00748 373-615 limits assumed): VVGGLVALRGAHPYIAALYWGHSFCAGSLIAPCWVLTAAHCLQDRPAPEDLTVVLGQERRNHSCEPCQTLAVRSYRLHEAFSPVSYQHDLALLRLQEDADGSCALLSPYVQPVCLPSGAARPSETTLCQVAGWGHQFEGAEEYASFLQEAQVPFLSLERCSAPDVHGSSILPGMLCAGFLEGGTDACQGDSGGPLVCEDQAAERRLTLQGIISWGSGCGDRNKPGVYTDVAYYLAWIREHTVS

T1 sequence (P00747 97-580 limits assumed): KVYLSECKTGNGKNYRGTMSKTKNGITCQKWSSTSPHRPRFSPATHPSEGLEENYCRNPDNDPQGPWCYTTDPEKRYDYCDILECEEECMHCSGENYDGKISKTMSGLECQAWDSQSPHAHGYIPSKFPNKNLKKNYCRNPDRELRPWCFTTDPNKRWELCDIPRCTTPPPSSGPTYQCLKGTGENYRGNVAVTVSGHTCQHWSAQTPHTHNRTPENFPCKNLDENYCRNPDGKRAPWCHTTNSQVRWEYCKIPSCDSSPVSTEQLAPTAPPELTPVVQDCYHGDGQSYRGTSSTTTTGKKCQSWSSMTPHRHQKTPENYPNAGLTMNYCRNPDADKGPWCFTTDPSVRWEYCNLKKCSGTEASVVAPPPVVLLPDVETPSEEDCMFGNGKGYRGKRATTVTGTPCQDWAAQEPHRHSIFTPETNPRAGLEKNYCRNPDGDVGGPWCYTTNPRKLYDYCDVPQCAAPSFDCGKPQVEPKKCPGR
T1 sequence (P00747 581-810 limits assumed): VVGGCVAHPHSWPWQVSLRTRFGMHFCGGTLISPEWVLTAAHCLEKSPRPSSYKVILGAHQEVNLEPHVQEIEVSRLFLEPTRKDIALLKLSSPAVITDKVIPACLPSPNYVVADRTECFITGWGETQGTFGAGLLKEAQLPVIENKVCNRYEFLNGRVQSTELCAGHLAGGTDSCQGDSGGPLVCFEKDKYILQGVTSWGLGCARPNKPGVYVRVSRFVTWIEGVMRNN

Row | Ki (human plasma factor XIIa) [µM] | Substance | Ki (human plasmin) [µM] | Ki [1] [µM] | Ki (human urine kallikrein) [µM] | Ki (human C1r, activated) [µM] | Ki (human plasma factor XIa) [µM] | Ki (human plasma thrombin) [µM] | Ki [2] [µM] | Ki (human C1s, activated) [µM]
1 | – | EAMHSFCAFKADDGPCRAAHPRWFFNIFTRQCEEFIYGGCEGNQNRFESLEECKKMCTRD (disulfide 7-57, 16-40, 32-53) [PEP-1] | 0.14 | 27 | > 100 | > 200 | 0.01 | > 20 | > 20 | > 20
2 | > 100 | aprotinin [reference compound] | – | – | – | – | – | > 100 | – | > 100
